From patent publication US9586907B2, “Isothiocyanate compounds, pharmaceutical compositions, and uses thereof” (priority 2006, dated 2017)
Values after ≈ are worked out from the molar mass of the structure shown. Marks after values point to notes of the source that are not given here.

Legend:
[1] = In vivo tolerance in mice; settings: highest dose, 50 mg/kg
[2] = tested on: Aspergillus fumigatus Rit 21; experiment: Anti-fungal MIC, Aspergillus fumigatus Rit 21; settings: Aspergillus fumigatus Rit 21
virus (92TH594) = experiment: Viral proliferation in PBMC, p24 viral antigen; assay type: cell-based; settings: for P24 values: PBMC
[3] = tested on: Aspergillus fumigatus Rit 11; experiment: Anti-fungal MIC, Aspergillus fumigatus Rit 11; settings: Aspergillus fumigatus Rit 11
M. bovis BCG = experiment: microbe, parasite or virus in culture; assay type: cell-based
M. tuberculosis AB = experiment: MIC, M. tuberculosis AB; assay type: cell-based
Experimental: (§1) Next, several of the bifunctional ITC compounds were tested for their ability to inhibit the growth of some clinical isolates of Mycobacteria, the results of which are summarized in Table 3 below.

Mycobacteria = assay type: cell-based; settings: Table 3
[4] = tested on: Cryptococcus neoformans CNH99; experiment: Anti-fungal MIC, Cryptococcus neoformans CNH99; settings: Cryptococcus neoformans CNH99
Candida albicans 90028 = experiment: Anti-fungal MIC, Candida albicans 90028; settings: Candida albicans 90028
[5] = tested on: Candida parapsilosis 22019; experiment: Anti-fungal MIC, Candida parapsilosis 22019; settings: Candida parapsilosis 22019
M. cansassi = experiment: MIC, M. cansassi; assay type: cell-based; settings: M. cansassi
M. tuberculosis H37Rv = experiment: MIC, M. tuberculosis H37Rv; assay type: cell-based
Experimental: as §1

[6] = tested on: human acute monocytic leukemia cells (THP1 cells); experiment: Growth of THP1 cells, MTT metabolic assay; assay type: cell-based; settings: highest dosage of 32 μg/mL, 24 hours
Experimental: THP1 cells were either mock-treated (DMSO vehicle alone), or treated with increasing doses of new compounds 37 and 45, from 0 to 32 μg/mL. Cells were incubated in the presence of compound for 24 hours, and subsequently were assayed for total cell viability using an MTT, metabolic assay.

[7] = tested on: Candida albicans 5108^mdr; experiment: Anti-fungal MIC, Candida albicans 5108^mdr; settings: Candida albicans 5108^mdr
Candida albicans 90030 = experiment: Anti-fungal MIC, Candida albicans 90030; settings: Candida albicans 90030
M. tuberculosis CDC1551 = experiment: MIC, M. tuberculosis CDC1551; assay type: cell-based
Experimental: as §1

M. tuberculosis P = experiment: MIC, M. tuberculosis P; assay type: cell-based
Experimental: as §1

M. avium = experiment: MIC, M. avium; assay type: cell-based; settings: M. avium
M. tuberculosis 210 = experiment: MIC, M. tuberculosis 210; assay type: cell-based
Experimental: as §1

M. tuberculosis W4 = experiment: MIC, M. tuberculosis W4; assay type: cell-based
Experimental: as §1

[8] = tested on: Aspergillus fumigatus Rit 1; experiment: Anti-fungal MIC, Aspergillus fumigatus Rit 1; settings: Aspergillus fumigatus Rit 1
M. fortuitum = experiment: MIC, M. fortuitum; assay type: cell-based; settings: M. fortuitum
M. scrofulaceum = experiment: MIC, M. scrofulaceum; assay type: cell-based; settings: M. scrofulaceum
M. tuberculosis W = experiment: MIC, M. tuberculosis W; assay type: cell-based
Experimental: as §1

[9] = tested on: human peritoneal macrophages infected with Mycobacterium tuberculosis H37Rv strain; experiment: In vitro infection model, cytotoxicity; settings: up to 1 μg/mL; Rifampicin control
[10] = tested on: Mycobacterium tuberculosis H37Rv strain; experiment: In vitro infection model, bacterial growth inhibition in infected macrophages; assay type: cell-based; settings: M. tuberculosis H37Rv; up to 1 μg/mL; Rifampicin control
From the text: Rifampicin was used as a control for this experiment.

M. intracellularie = experiment: MIC, M. intracellularie; assay type: cell-based; settings: M. intracellularie
Candida dlabrata 250^mdr = experiment: Anti-fungal MIC, Candida dlabrata 250^mdr; settings: Candida dlabrata 250^mdr; MIC determined at 48 hours of growth

OCCCCCCCCN=C=S [Compound 45, HO—(CH2)8—N═C═S]
toxicity in treated mice [1]: no toxicity was observed | Anti-Fungal Activity (MIC) [2]: 8 µg/mL | difference in antiviral activity with and without preincubation prior to viral infection (virus (92TH594); Tables 5 and 6 compared): no detectable difference | P24 values (virus (92TH594); compound 2.5 μg/ml, added to the cells after viral infection): 975 pg/mL | P24 values (virus (92TH594); compound 2.5 μg/ml, added to the cells before viral infection): 960 pg/mL | P24 values (virus (92TH594); compound 10 μg/ml, added to the cells after viral infection): 7 pg/mL | P24 values (virus (92TH594); compound 10 μg/ml, added to the cells before viral infection): 6 pg/mL | Anti-Fungal Activity (MIC) [3]: 8 µg/mL | Anti-Fungal Activity (MIC) (Candida crusei 6258^mdr): 4 µg/mL | MIC (M. bovis BCG): 0.5 µg/mL (≈ 2.67 µM) | MIC (M. tuberculosis AB): 2 µg/mL (≈ 10.7 µM) | activity against Mycobacteria (in words) (Mycobacteria): highest activity | Anti-Fungal Activity (MIC) [4]: <1 µg/mL | Anti-Fungal Activity (MIC) (Candida albicans 90028): 8 µg/mL | Anti-Fungal Activity (MIC) [5]: 8 µg/mL | MIC (M. cansassi): 1 µg/mL (≈ 5.34 µM) | MIC (M. tuberculosis H37Rv): 1 µg/mL (≈ 5.34 µM) | effect on growth of THP1 cells [6]: not able to affect the growth of THP1 cells | Anti-Fungal Activity (MIC) [7]: 4 µg/mL | Anti-Fungal Activity (MIC) (Candida albicans 90030): 4 µg/mL | MIC (M. tuberculosis CDC1551): 2 µg/mL (≈ 10.7 µM) | MIC (M. tuberculosis P): 2 µg/mL (≈ 10.7 µM) | MIC (M. avium): 4 µg/mL (≈ 21.4 µM) | MIC (M. tuberculosis 210): 1 µg/mL (≈ 5.34 µM) | MIC (M. tuberculosis W4): 1 µg/mL (≈ 5.34 µM) | Anti-Fungal Activity (MIC) [8]: 8 µg/mL | MIC (M. fortuitum): 4 µg/mL (≈ 21.4 µM) | MIC (M. scrofulaceum): 8 µg/mL (≈ 42.7 µM) | MIC (M. tuberculosis W): 1 µg/mL (≈ 5.34 µM) | cytotoxicity in infected macrophages [9]: low cytotoxicity, similar to Rifampicin | growth inhibitory activity in infected macrophages [10]: comparabale with the inhibition observed for Rifampicin | MIC (M. intracellularie): 4 µg/mL (≈ 21.4 µM) | Anti-Fungal Activity (MIC) (Candida dlabrata 250^mdr): 4** μg/mL
